As usually defined, the surface tension is the force per length acting along the surface.

Series [1] can be described thus: Surface tension of aqueous solution at 25° C. The class given is physicochemical.
The nature of series [2]: Foam test: solution shaken in a graduated cylinder. The class given is physicochemical. As to the method:
Dioctanoyl glyceride (6.88 grams; 0.02 mole), sulfamic acid (2.14 gram; 0.022 mole) and ammonium sulfamate (0.34 gram; 0.00298 mole) were heated with stirring at 120-125° C. for 3 hours. The reaction mixture was a somewhat viscous brown liquid. The reaction mixture was treated with water to make a 10% solution by weight, and centrifuged to recover unreacted diglyceride.

[3] abbreviates: 0.1% by weight aqueous solution of the reaction mixture.
[4] abbreviates: 0.12% aqueous solution of the product in distilled water.
[5] abbreviates: 20 ml of the 0.1% solution shaken in a 100 ml graduated cylinder for 20 full cycles.

Regarding `CCCCCCCC(=O)OCC(COS(=O)(=O)O)OC(=O)CCCCCCC.N` (centres unmarked) [Example 1 (sodium salt), Sulfated Dioctanoyl Glyceride], the “surface tension at 25° C.” value in series [1] (setting [3]) is reported as 26.3 mN/m. Turning to “Mixed Morpholinium, Ammonium Salt of Sulfated Dihexanoyl Glyceride [Example 3]”, the “surface tension at 25° C.” value in series [1] (0.44% aqueous solution of the reaction mixture) stood at 36.5 mN/m.

On to “Mixed Sodium and Ammonium Salt of Sulfated Dihexanoyl Glyceride [Example 6 II]”, for which the “surface tension at 25° C.” value in series [1] (0.42% (by weight) solution of the reaction mixture, diluted from 10% solution (pH about 9) after centrifugation) was found to be 35.0 mN/m. As to `CCCCCC(=O)OCC(COS(=O)(=O)O)OC(=O)CCCCC.N` (centres unmarked) [Example 6 I, Ammonium Salt of Sulfated Dihexanoyl Glyceride], the “surface tension at 25° C.” value in series [1] (0.42% aqueous solution of the product) is 35.6 mN/m. As to “Sodium Salt of Sulfonated Didecanoyl Glyceride [Example 4]”, the “surface tension at 25° C.” value in series [1] (0.1 g sample of reaction mixture dissolved in distilled water, neutralized to pH about 8 with NaOH) was determined as 25.9 mN/m. As for `CCCCCC(=O)OCC(COS(=O)(=O)O)OC(=O)CCCCC.N` (centres unmarked) [Example 2, Ammonium Salt of Sulfated Dihexanoyl Glyceride], in series [1] (0.4% by weight aqueous solution of the reaction mixture), the “surface tension at 25° C.” value was determined as 31.9 mN/m. Regarding “Sodium Salt of Sulfated Dioctanoyl Glyceride [Example 5]”, the “surface tension at 25° C.” value in series [1] (setting [4]) is given as 26.8 mN/m. Also, the “foaming (observed)” value in series [2] (setting [4]) is recorded as “foam very well”. As for `CCCCCCCC(=O)OCC(COS(=O)(=O)O)OC(=O)CCCCCCC.N` (centres unmarked) [Example 1 (ammonium salt), Sulfated Dioctanoyl Glyceride], the “surface tension at 25° C.” value in series [1] (setting [3]) came out at 25.4 mN/m. Moreover, in series [2] (setting [5]), the foam persistence result is given as “one hour or more” and the foam produced is 45 mL.

These data come from patent US20060167298A1, “Sulfated diglyceride derivatives, salts thereof, and processes for their preparation” (priority 2005, published 2006).
